Test systems include A549 NSCLC; ACHN renal; COLO 205 colon; DU-145 prostate; HCC-2998 colon; HL-60(TB) leukemia; HOP-92 NSCLC; IGROV1 ovarian; LOX IMVI melanoma; MALME-3M melanoma; NCI-H460 lung; NCI/ADR-RES ovarian; PC-3 prostate; SF-268 CNS; SK-MEL-5 melanoma; SN12C renal; SNB-75 CNS; SW-620 colon; T-47D breast; U251 CNS.
Holding throughout (assay): NCI anticancer screen, dose series, 48 h

SMILES strings stand for the structures.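 Method: 48-hour compound exposure of cells in 96-well plates, five concentrations, linear interpolation of endpoints. The concentration for full growth arrest is given as TGI.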 *1 amine or outer side, *2 acyl side, *3 side chain or, on linkers, in order; H or OH if unused. Where a SMILES comes first, the peptide text is derived from it. Bridges are numbered along the chain shown (N, C = ends). [ ]: non-standard residue; d: D form. The star is where a group is joined. X38 = CC[C@H](C)[C@@H](N[*:1])[C@@H](O)CC(=O)[*:2]; NMeY = CN[C@@H](Cc1ccc(O)cc1)C(=O)O; dNMeL = CN[C@H](CC(C)C)C(=O)O; Hiv = CC(C)[C@H](O)C(=O)O; Pyruvoyl = CC(=O)C(=O)*

The results in this text go back to PubChem BioAssay (NCI).

Consider `Cc1nn2c(=O)c([N+](=O)[O-])c(/C=C/c3ccccc3)nc2s1`, for which the TGI in the test with A549 NSCLC is more than 79.1 µM; in the test with ACHN renal, 74.9 µM; in the test on COLO 205 colon, 28.8 µM; in the test on DU-145 prostate it was more than 100 µM; with HCC-2998 colon, 43.1 µM; in the test with HL-60(TB) leukemia, 5.61 µM. For the same compound, the TGI is more than 100 µM in the test on HOP-92 NSCLC; more than 67.8 µM in the test on IGROV1 ovarian; 3.98 µM in the test with LOX IMVI melanoma; more than 71.7 µM in the test on MALME-3M melanoma; 29 µM with NCI-H460 lung; more than 53 µM in the test on NCI/ADR-RES ovarian. Also, the TGI in the test with PC-3 prostate was more than 100 µM; in the test on SF-268 CNS it was more than 100 µM; in the test on SK-MEL-5 melanoma, 11.2 µM; in the test on SN12C renal, more than 100 µM; with SNB-75 CNS it was 20.3 µM; with SW-620 colon, more than 51.4 µM. The TGI is more than 100 µM in the test on T-47D breast and 7.99 µM in the test on U251 CNS.

As to `CC[C@H](C)[C@H]1NC(=O)[C@@H](NC(=O)[C@@H](CC(C)C)N(C)C(=O)[C@@H]2CCCN2C(=O)C(C)=O)[C@@H](C)OC(=O)[C@H](Cc2ccc(OC)cc2)N(C)C(=O)[C@@H]2CCCN2C(=O)[C@H](CC(C)C)NC(=O)[C@H](C(C)C)OC(=O)C[C@@H]1O` (Pyruvoyl-P[dNMeL]T[X38][Hiv]LP[NMeY](Me); ester 3-C), the TGI stood at 0.0618 µM with A549 NSCLC; 0.438 µM in the test on ACHN renal; 0.00621 µM in the test on COLO 205 colon; 0.00299 µM in the test on DU-145 prostate; 0.00658 µM with HCC-2998 colon; 0.187 µM with HL-60(TB) leukemia. For the same compound, the TGI with HOP-92 NSCLC stood at 0.374 µM; in the test with IGROV1 ovarian, 1.19 µM; with LOX IMVI melanoma it was 0.0481 µM; in the test with MALME-3M melanoma it was 0.107 µM; in the test with NCI-H460 lung it was 0.0321 µM; in the test on NCI/ADR-RES ovarian, 4.77 µM. Besides, the TGI turned out to be 0.261 µM in the test with PC-3 prostate; 0.0983 µM in the test on SF-268 CNS; 0.0102 µM with SK-MEL-5 melanoma; 0.0476 µM with SN12C renal; 0.0101 µM in the test with SNB-75 CNS; 0.0113 µM with T-47D breast. For the same compound, the TGI in the test with U251 CNS was found to be 0.154 µM.

`Nc1ccn(C2CC(O)C(COP(O)(=S)OC3CC(n4ccc(N)nc4=O)OC3CO)O2)c(=O)n1` (stereo not given): the TGI in the test on A549 NSCLC, in the test with ACHN renal, in the test on COLO 205 colon, in the test with DU-145 prostate, in the test on HCC-2998 colon and with HL-60(TB) leukemia was more than 100 µM in each case. Moreover, the TGI in the test on HOP-92 NSCLC, in the test on IGROV1 ovarian, in the test with LOX IMVI melanoma, in the test on NCI-H460 lung, with NCI/ADR-RES ovarian and in the test on PC-3 prostate was more than 100 µM throughout. Moreover, the TGI with SF-268 CNS, in the test with SK-MEL-5 melanoma, with SN12C renal, with SNB-75 CNS, with SW-620 colon and in the test on T-47D breast was more than 100 µM in each case. For the same compound, in the test with U251 CNS, the TGI is more than 100 µM.

In the case of `COC(=O)N1C[C@@]2(C=CC3(CC2)OCCO3)c2ccccc21`, the TGI in the test on A549 NSCLC was more than 100 µM; in the test on ACHN renal it was more than 100 µM; in the test with COLO 205 colon, more than 100 µM; in the test with DU-145 prostate, more than 100 µM; in the test with HCC-2998 colon, more than 100 µM; in the test with HL-60(TB) leukemia, 58.4 µM. For the same compound, the TGI was more than 100 µM in the test with HOP-92 NSCLC; more than 100 µM with IGROV1 ovarian; more than 100 µM in the test on LOX IMVI melanoma; more than 100 µM in the test with NCI-H460 lung; 95.6 µM in the test with NCI/ADR-RES ovarian; more than 100 µM in the test on PC-3 prostate. Moreover, the TGI in the test on SK-MEL-5 melanoma, in the test with SN12C renal, in the test with SNB-75 CNS, in the test on SW-620 colon, with T-47D breast and in the test on U251 CNS was more than 100 µM in each case.

Consider `COc1ccccc1C1CC(=O)CC(c2ccccc2OC)C12C(=O)NC(=S)NC2=O` (stereo not given), for which the TGI is more than 100 µM in the test on ACHN renal; more than 100 µM with COLO 205 colon; more than 100 µM in the test on DU-145 prostate; more than 100 µM in the test with HCC-2998 colon; 69.5 µM with HL-60(TB) leukemia; more than 100 µM in the test on HOP-92 NSCLC. In addition, the TGI in the test with IGROV1 ovarian, with LOX IMVI melanoma, in the test on MALME-3M melanoma, with NCI-H460 lung, in the test on NCI/ADR-RES ovarian and in the test with PC-3 prostate was more than 100 µM in each case. The TGI in the test on SF-268 CNS, in the test on SK-MEL-5 melanoma, in the test with SN12C renal, in the test on SNB-75 CNS, in the test with SW-620 colon and in the test on T-47D breast was more than 100 µM throughout. Further, the TGI in the test with U251 CNS was more than 100 µM.

As to `O=C1c2cc3c(cc2CC12Cc1cc4c(cc1C2=O)CCCC4)CCCC3`, the TGI with A549 NSCLC, in the test on ACHN renal, in the test on COLO 205 colon, in the test on DU-145 prostate, in the test on HCC-2998 colon and in the test with HL-60(TB) leukemia was more than 100 µM throughout. In addition, the TGI was 50.6 µM in the test with HOP-92 NSCLC; more than 100 µM in the test on IGROV1 ovarian; more than 100 µM with LOX IMVI melanoma; more than 100 µM in the test on MALME-3M melanoma; more than 100 µM with NCI-H460 lung; more than 100 µM in the test on NCI/ADR-RES ovarian. In addition, the TGI is more than 100 µM in the test with PC-3 prostate; more than 100 µM with SF-268 CNS; more than 100 µM in the test with SK-MEL-5 melanoma; more than 100 µM in the test with SN12C renal; 53.4 µM with SNB-75 CNS; more than 100 µM in the test with SW-620 colon. Moreover, the TGI in the test with T-47D breast was 89.1 µM; with U251 CNS, more than 100 µM.

With `O=C1CSC2(CC(/C=C/c3ccccc3O)=NN2c2cccc(S(=O)(=O)O)c2)N1c1nc2ccccc2s1` (stereo not given), the TGI in the test with A549 NSCLC is more than 100 µM; with ACHN renal, more than 100 µM; in the test on COLO 205 colon, more than 100 µM; in the test with DU-145 prostate it was 97.5 µM; in the test with HCC-2998 colon, 52.6 µM; in the test on HL-60(TB) leukemia, 49 µM. Moreover, the TGI is more than 100 µM in the test on HOP-92 NSCLC; more than 100 µM in the test with IGROV1 ovarian; 39.3 µM in the test on LOX IMVI melanoma; more than 100 µM in the test with MALME-3M melanoma; more than 100 µM in the test with NCI-H460 lung; more than 100 µM in the test on NCI/ADR-RES ovarian. The TGI with PC-3 prostate was more than 100 µM; in the test on SF-268 CNS it was more than 100 µM; in the test with SK-MEL-5 melanoma, more than 100 µM; with SN12C renal, 78.7 µM; with SNB-75 CNS it was more than 100 µM; with SW-620 colon, more than 100 µM. For the same compound, the TGI in the test with T-47D breast is 65.4 µM; in the test on U251 CNS it was more than 100 µM.
